# Experimental data reported in ChEMBL document CHEMBL4393689, “Discovery of fluorescent coumarin-benzo[b]thiophene 1, 1-dioxide conjugates as mitochondria-targeting antitumor STAT3 inhibitors” (Eur J Med Chem, 2019).
# pIC50: −log10 of the molar value. Activity calls are given as the source filed them. The rule behind the calls is not given here.
# Experiments:
# MDA-MB-231 [1] = test: Induction ROS accumulation in human MDA-MB-231 cells after 24 hrs by DCFH-DA staining-based flow cytometric analysis; format: functional, cell-based
# [2] = target: Signal transducer and activator of transcription 3 (Homo sapiens) (UniProt P40763); test: Inhibition of STAT3 in human MDA-MB-231 cells assessed as decrease in Bcl2 protein expression incubated for 24 hrs by Western blot analysis; format: cell-based
# MDA-MB-231 [3] = test: Effect on total STAT3 expression in human MDA-MB-231 cells at 1 to 4 uM incubated for 24 hrs by Western blot analysis; format: ADME, cell-based; conditions: mda-mb-231, 24 h
# 4T1 [4] = test: Antitumor activity against mouse 4T1 cells implanted in BALB/c mouse assessed as reduction in tumor weight at 10 mg/kg, ip for 14 days; format: functional; conditions: 4T1, ip, 336 h
# L02 = test: Cytotoxicity against human LO2 cells assessed as reduction in cell viability incubated for 48 hrs by MTT assay; format: cell-based; conditions: L02, 48 h
# MDA-MB-231 [5] = test: Induction of apoptosis in human MDA-MB-231 cells assessed as viable cells at 2 uM incubated for 24 hrs by annexinV-FITC and propidium iodide staining based flow cytometric analysis (reference value: 95.1%); format: functional; conditions: MDA-MB-231, 24 h, read-out: Activity
# MDA-MB-231 [6] = test: Induction of apoptosis in human MDA-MB-231 cells assessed as viable cells at 1 uM incubated for 24 hrs by annexinV-FITC and propidium iodide staining based flow cytometric analysis (reference value: 95.1%); format: functional; conditions: MDA-MB-231, 24 h, read-out: Activity
# MDA-MB-231 [7] = test: Induction of apoptosis in human MDA-MB-231 cells assessed as early apoptotic cells at 1 uM incubated for 24 hrs by annexinV-FITC and propidium iodide staining based flow cytometric analysis (reference value: 3.2%); format: functional
# 4T1 [8] = test: Antitumor activity against mouse 4T1 cells implanted in BALB/c mouse assessed as reduction in tumor volume at 20 mg/kg, ip for 14 days; format: functional; conditions: 4T1, ip, 336 h
# MDA-MB-231 [9] = test: Induction of apoptosis in human MDA-MB-231 cells assessed as late apoptotic cells at 2 uM incubated for 24 hrs by annexinV-FITC and propidium iodide staining based flow cytometric analysis (reference value: 1.0%); format: functional
# MDA-MB-231 [10] = test: Induction of apoptosis in human MDA-MB-231 cells assessed as increase in cleaved caspase-3 levels at 1 to 4 uM incubated for 24 hrs by Western blot analysis; format: functional, cell-based
# [11] = Drug accumulation in mitochondria of human MCF7 cells at 5 uM incubated for 60 mins by mitotracker red staining based confocal microscopy; format: ADME; conditions: mcf7, 1 h
# [12] = target: Signal transducer and activator of transcription 3 (Homo sapiens) (UniProt P40763); test: Inhibition of STAT3 in human MDA-MB-231 cells assessed as decrease in STAT3 phosphorylation at Tyr705 residue incubated for 24 hrs by Western blot analysis; format: cell-based
# MDA-MB-231 [13] = test: Inhibition of colony formation in human MDA-MB-231 cells assessed as reduction in cell proliferation at 1 uM treated for 24 hrs and measured after 10 to 14 days by crystal violet staining based assay; format: functional
# [14] = target: Signal transducer and activator of transcription 3 (Homo sapiens) (UniProt P40763); test: Inhibition of STAT3 in human MDA-MB-231 cells assessed as decrease in STAT3 phosphorylation at Ser727 residue incubated for 24 hrs by Western blot analysis; format: cell-based
# HepG2 [15] = test: Antiproliferative activity against human HepG2 cells assessed as reduction in cell viability incubated for 48 hrs by MTT assay; format: functional, cell-based; conditions: HepG2, 48 h
# MDA-MB-231 [16] = test: Induction of apoptosis in human MDA-MB-231 cells assessed as necrotic cells at 1 uM incubated for 24 hrs by annexinV-FITC and propidium iodide staining based flow cytometric analysis (reference value: 0.8%); format: functional
# [17] = target: Signal transducer and activator of transcription 3 (Homo sapiens) (UniProt P40763); test: Inhibition of STAT3 in human MDA-MB-231 cells assessed as decrease in STAT3-DNA binding at 1 to 4 uM incubated for 24 hrs by electrophoretic mobility shift assay; format: cell-based
# MDA-MB-231 [18] = test: Induction of apoptosis in human MDA-MB-231 cells assessed as increase in cleaved PARP levels at 1 to 4 uM incubated for 24 hrs by Western blot analysis; format: functional, cell-based
# MCF7 [19] = test: Antiproliferative activity against human MCF7 cells assessed as reduction in cell viability incubated for 48 hrs by MTT assay; format: functional, cell-based; conditions: MCF7, 48 h
# MCF7 [20] = test: Potency index, ratio of IC50 of BTP to ratio of IC50 of compound for antiproliferative activity against human MCF7 cells assessed as reduction in cell viability incubated for 48 hrs by MTT assay; format: functional
# HepG2 [21] = test: Potency index, ratio of IC50 of BTP to ratio of IC50 of compound for antiproliferative activity against human HepG2 cells assessed as reduction in cell viability incubated for 48 hrs by MTT assay; format: functional
# MDA-MB-231 [22] = test: Induction of mitochondrial membrane depolarization in human MDA-MB-231 cells assessed as increase in green fluorescence incubated for 24 hrs JC-1 staining based flow cytometric analysis; format: functional, cell-based
# HCT-116 [23] = test: Antiproliferative activity against human HCT116 cells assessed as reduction in cell viability incubated for 48 hrs by MTT assay; format: functional, cell-based; conditions: HCT-116, 48 h
# MDA-MB-231 [24] = test: Antiproliferative activity against human MDA-MB-231 cells assessed as reduction in cell viability incubated for 48 hrs by MTT assay; format: functional, cell-based; conditions: MDA-MB-231, 48 h
# 4T1 [25] = test: Antitumor activity against mouse 4T1 cells implanted in BALB/c mouse assessed as reduction in tumor weight at 20 mg/kg, ip for 14 days; format: functional; conditions: 4T1, ip, 336 h
# MDA-MB-231 [26] = test: Potency index, ratio of IC50 of BTP to ratio of IC50 of compound for antiproliferative activity against human MDA-MB-231 cells assessed as reduction in cell viability incubated for 48 hrs by MTT assay; format: functional
# MDA-MB-231 [27] = test: Induction of apoptosis in human MDA-MB-231 cells assessed as late apoptotic cells at 4 uM incubated for 24 hrs by annexinV-FITC and propidium iodide staining based flow cytometric analysis (reference value: 1.0%); format: functional
# HCT-116 [28] = test: Potency index, ratio of IC50 of BTP to ratio of IC50 of compound for antiproliferative activity against human HCT116 cells assessed as reduction in cell viability incubated for 48 hrs by MTT assay; format: functional
# MDA-MB-231 [29] = test: Induction of apoptosis in human MDA-MB-231 cells incubated for 24 hrs by annexinV-FITC and propidium iodide staining based flow cytometric analysis; format: functional, cell-based
# MDA-MB-231 [30] = test: Inhibition of colony formation in human MDA-MB-231 cells at 2 uM treated for 24 hrs and measured after 10 to 14 days by crystal violet staining based assay; format: functional
# MCF-10A = test: Cytotoxicity against human MCF10A cells assessed as reduction in cell viability incubated for 48 hrs by MTT assay; format: cell-based
# MDA-MB-231 [31] = test: Induction of apoptosis in human MDA-MB-231 cells assessed as necrotic cells at 2 uM incubated for 24 hrs by annexinV-FITC and propidium iodide staining based flow cytometric analysis (reference value: 0.8%); format: functional
# MDA-MB-231 [32] = test: Induction of apoptosis in human MDA-MB-231 cells assessed as increase in cleaved caspase-9 levels at 1 to 4 uM incubated for 24 hrs by Western blot analysis; format: functional, cell-based
# [33] = Selectivity index, ratio of IC50 for human MCF10A cells to IC50 for human MDA-MB-231 cells; format: toxicity; conditions: MCF10A cells versus MDA-MB-231 cells, read-out: Ratio IC50
# Signal transducer and activator of transcription 3 (Homo sapiens), sequence (P40763 whole entry): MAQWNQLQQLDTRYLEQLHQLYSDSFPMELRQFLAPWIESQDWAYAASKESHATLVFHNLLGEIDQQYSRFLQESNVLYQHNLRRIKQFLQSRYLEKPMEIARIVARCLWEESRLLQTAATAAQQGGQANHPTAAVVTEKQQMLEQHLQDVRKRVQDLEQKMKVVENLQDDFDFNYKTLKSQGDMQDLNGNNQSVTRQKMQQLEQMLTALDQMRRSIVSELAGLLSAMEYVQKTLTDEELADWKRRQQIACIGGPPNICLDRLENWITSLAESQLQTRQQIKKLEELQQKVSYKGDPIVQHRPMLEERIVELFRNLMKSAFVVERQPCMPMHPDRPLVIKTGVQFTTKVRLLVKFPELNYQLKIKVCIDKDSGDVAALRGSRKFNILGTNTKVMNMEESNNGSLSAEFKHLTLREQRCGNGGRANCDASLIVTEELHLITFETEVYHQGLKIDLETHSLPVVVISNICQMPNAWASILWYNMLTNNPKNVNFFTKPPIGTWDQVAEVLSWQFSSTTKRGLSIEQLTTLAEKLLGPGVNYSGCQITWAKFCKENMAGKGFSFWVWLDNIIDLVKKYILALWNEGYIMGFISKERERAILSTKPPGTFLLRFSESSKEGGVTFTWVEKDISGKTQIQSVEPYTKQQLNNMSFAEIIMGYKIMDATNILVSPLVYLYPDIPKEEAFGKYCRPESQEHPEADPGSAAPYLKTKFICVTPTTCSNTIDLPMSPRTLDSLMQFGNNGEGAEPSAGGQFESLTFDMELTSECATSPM
smiles,measurement,setting,value
CCN(CC)c1ccc2cc(C(=O)N3CCN(C(=O)C4=Cc5c(Br)cccc5S4(=O)=O)CC3)c(=O)oc2c1,Activity,MDA-MB-231 [1],Dose-dependent effect
same,inhibition,[2],Dose-dependent effect
same,Activity,MDA-MB-231 [3],Non-Toxic
same,inhibition in vivo at 10 mg/kg,4T1 [4],39.7%
same,pIC50,L02,4.45
same,viability at 2 µM,MDA-MB-231 [5],89.3%
same,viability at 1 µM,MDA-MB-231 [6],92%
same,Activity,MDA-MB-231 [7],5.4%
same,inhibition in vivo at 20 mg/kg,4T1 [8],61.2%
same,Activity,MDA-MB-231 [9],1.8%
same,Activity,MDA-MB-231 [10],Active
same,Drug uptake,[11],Active
same,inhibition,[12],Dose-dependent effect
same,inhibition,MDA-MB-231 [13],Active
same,inhibition,[14],Dose-dependent effect
same,pIC50,HepG2 [15],5.54
same,Activity,MDA-MB-231 [16],1.3%
same,inhibition,[17],Active
same,Activity,MDA-MB-231 [18],Active
same,pIC50,MCF7 [19],5.48
same,Ratio IC50,MCF7 [20],4.6 - 19
same,Ratio IC50,HepG2 [21],4.6 - 19
same,Activity,MDA-MB-231 [22],Dose-dependent effect
same,pIC50,HCT-116 [23],5.72
same,pIC50,MDA-MB-231 [24],5.84
same,inhibition in vivo at 20 mg/kg,4T1 [25],56.9%
same,Ratio IC50,MDA-MB-231 [26],4.6 - 19
same,Activity,MDA-MB-231 [27],4.8%
same,Ratio IC50,HCT-116 [28],4.6 - 19
same,Activity,MDA-MB-231 [29],Dose-dependent effect
same,inhibition at 2 µM,MDA-MB-231 [30],100%
same,pIC50,MCF-10A,4.84
same,Activity,MDA-MB-231 [31],1.6%
same,Activity,MDA-MB-231 [32],Active
same,selectivity ratio,[33],10.2
